Series [1] is described as follows: Tolerability in CD-1 mice, body and organ weights (Example 16). The format is in vivo. The following applies: male CD-1 mice, 50 mg/kg s.c. twice a week for four weeks (8 treatments), end of study (day 27). How it is done:
(§1) Groups of four male CD-1 mice at 4-5 weeks of age (obtained from Charles River) were injected subcutaneously twice a week for four weeks (for a total of 8 treatments) with 50 mg/kg of modified oligonucleotides. One group of male CD-1 mice was injected with PBS. Mice were euthanized on day 27 post start of treatment (24 hrs following the final administration).
Body weights of CD-1 mice were measured at the end of the study, and the average body weight for each group is presented in the table below. Modified oligonucleotides that caused any changes in organ weights outside the expected range for modified oligonucleotides were excluded from further studies.

Series [2] in a line: Tolerability in CD-1 mice, plasma chemistry markers (Example 16). The format is in vivo. The following applies: male CD-1 mice, 50 mg/kg s.c. twice a week for four weeks (8 treatments), day 27. How it is done:
CD-1 mice were treated with modified oligonucleotides selected from studies described above and evaluated for changes in the levels of various plasma chemistry markers.
as §1

Series [3] in a line: Tolerability in Sprague-Dawley rats, kidney function, urine total protein to creatinine ratio (Example 21). The following applies: male Sprague-Dawley rats, 50 mg/kg s.c. weekly for 6 weeks (7 doses).
Experimental: Male Sprague-Dawley rats were maintained on a 12-hour light/dark cycle and fed ad libitum with Purina normal rat chow. Groups of 4 Sprague-Dawley rats each were weekly injected subcutaneously with 50 mg/kg of Ionis oligonucleotide for 6 weeks (total 7 doses). Forty-eight hours after the last dose, the rats were euthanized; and organs, urine and plasma were harvested for further analysis.
To evaluate the effect of Ionis oligonucleotides on kidney function, urinary levels of total protein and creatinine were measured using an automated clinical chemistry analyzer (Hitachi Olympus AU400c, Melville, N.Y.).
Series [4] is described as follows: Tolerability in Sprague-Dawley rats, body and organ weights (Example 21). The format is in vivo. The following applies: male Sprague-Dawley rats, 50 mg/kg s.c. weekly for 6 weeks (7 doses); for Kidney weight / Liver weight / Spleen weight: end of study; for body weight: terminal, prior to necropsy. The procedure:
Terminal body weight was measured prior to necropsy. Ionis oligonucleotides that caused any changes in organ weights outside the expected range for modified oligonucleotides were excluded from further studies.

Series [5] in a line: Tolerability in Sprague-Dawley rats, plasma chemistry markers (Example 21). The following applies: male Sprague-Dawley rats, 50 mg/kg s.c. weekly for 6 weeks (7 doses), 48 hours after last dose. The format is in vivo. The procedure: Sprague-Dawley rats are a multipurpose model used for safety and efficacy evaluations. The rats were treated with Ionis modified oligonucleotides from the studies described in the Examples above and evaluated for changes in the levels of various plasma chemistry markers.

The next series deals with Yap1 mRNA. As to the kind of experiment: Dose-dependent inhibition of human Yap1 in SNU-449 cells (Example 9, RTS36584). The following applies: free uptake; for % UTC (Yap1 mRNA): approximately 48 hours; for pIC50: linear regression on a log/linear plot. It counts as cell-based. Put shortly: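 SNU-449 cells (10,000/well) took up modified oligonucleotides by free uptake at a range of doses for about 48 h. Yap1 mRNA was quantified with primer-probe set RTS36584, normalised to RIBOGREEN total RNA and expressed as % untreated control; IC50 from linear regression on log/linear plot.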

pIC50: −log10 of the molar value. Marks after values point to notes of the source that are not given here. Strand notation (5' to 3'): a small letter for the sugar, then the base; units joined by * are phosphorothioate-linked, units joined directly phosphodiester-linked; [ ] holds rarer units or linkages, { } end groups; capitals alone tell only the bases. e = 2'-O-(2-methoxyethyl) (MOE); k = constrained ethyl (cEt); [5mC] = 5-methylcytosine; d = 2'-deoxy (DNA)

With “1076186 (kA*kT*kT*dT*dA*dG*dG*dA*dT*dG*d[5mC]*dA*dT*kG*kG*kT) [compound 1076186]”, in series [1], the Kidney weight is 0.58 g, the Liver weight is listed as 2.42 g, the Spleen weight was determined as 0.16 g and the body weight worked out at 37 g. In addition, in series [2], the ALT was 74 U/L, the AST worked out at 97 U/L, the Albumin stood at 2.5 g/dL and the BUN turned out to be 23 mg/dL. Also, the TBIL in series [2] worked out at 0.16 mg/dL.

Consider “1198312 (kG*k[5mC]*kA*d[5mC]*dT*dT*dT*dT*dA*d[5mC]*dA*dT*kT*eA*kG*eG) [compound 1198312]”, for which the “URINE P/C ratio (total protein to creatinine ratio)” value (from here on “URINE P/C ratio”) in series [3] was found to be 60. In series [4], the Kidney weight is 4.26 g, the Liver weight stood at 19 g, the Spleen weight is 2.19 g and the body weight came to 365 g. In series [5], the ALT is reported as 132 U/L, the AST was found to be 108 U/L, the BUN came out at 25 mg/dL and the TBIL was 0.14 mg/dL. The “% UTC (Yap1 mRNA)” value with Yap1 mRNA (31.3 nM) is 76 % UTC. In addition, the “% UTC (Yap1 mRNA)” value in the series with Yap1 mRNA (125.0 nM) worked out at 34 % UTC. In addition, the “% UTC (Yap1 mRNA)” value in the series with Yap1 mRNA (500.0 nM) was determined as 10 % UTC. Further, the “% UTC (Yap1 mRNA)” value in the series on Yap1 mRNA (2000.00 nM) stood at 5 % UTC. In the series with Yap1 mRNA, this substance gave a pIC50 of 7.00.

As to “1198612 (kA*kA*kG*dT*dG*dT*dA*dT*dG*dT*d[5mC]*dA*kG*kA*kA*eG) [compound 1198612]”, the “URINE P/C ratio” value in series [3] is 11. In series [4], this substance gave a Kidney weight of 3.60 g, a Liver weight of 17 g, a Spleen weight of 2.33 g and a body weight of 345 g. In series [5], this substance yielded an ALT of 74 U/L, an AST of 91 U/L, a BUN of 31 mg/dL and a TBIL of 0.12 mg/dL. Moreover, the “% UTC (Yap1 mRNA)” value in the series with Yap1 mRNA (31.3 nM) is 44 % UTC. For the same substance, the “% UTC (Yap1 mRNA)” value in the series on Yap1 mRNA (125.0 nM) came out at 12 % UTC. Further, the “% UTC (Yap1 mRNA)” value in the series on Yap1 mRNA (500.0 nM) is 2 % UTC. In addition, the “% UTC (Yap1 mRNA)” value in the series with Yap1 mRNA (2000.00 nM) turned out to be 0 % UTC. This substance also gave a pIC50 in the series on Yap1 mRNA of more than 7.52.

Turning to “1198873 (kA*kG*dT*dG*dT*dA*dT*dG*dT*d[5mC]*dA*kG*eA*kA*eG*kA; antisense) [compound 1198873]”, the “URINE P/C ratio” value in series [3] was determined as 9. In series [4], this substance displayed a Kidney weight of 3.65 g, a Liver weight of 19 g, a Spleen weight of 2.42 g and a body weight of 408 g. Moreover, in series [5], the ALT is given as 78* U/L, the AST is recorded as 79* U/L, the BUN is on record as 24* mg/dL and the TBIL is given as 0.17* mg/dL. For the same substance, the “% UTC (Yap1 mRNA)” value with Yap1 mRNA (31.3 nM) is listed as 38 % UTC. In the series with Yap1 mRNA (125.0 nM), the “% UTC (Yap1 mRNA)” value is 12 % UTC. Further, in the series with Yap1 mRNA (500.0 nM), the “% UTC (Yap1 mRNA)” value is reported as 2 % UTC. Further, the “% UTC (Yap1 mRNA)” value with Yap1 mRNA (2000.00 nM) stood at 0 % UTC. For the same substance, the pIC50 in the series with Yap1 mRNA was more than 7.52.

“1198874 (kA*kA*dG*dT*dG*dT*dA*dT*dG*dT*d[5mC]*kA*eG*kA*eA*kG) [compound 1198874]”: the “URINE P/C ratio” value in series [3] came out at 9. In series [4], this substance gave a Kidney weight of 3.67 g, a Liver weight of 20 g, a Spleen weight of 2.61 g and a body weight of 372 g. In series [5], this substance yielded an ALT of 73 U/L, an AST of 102 U/L, a BUN of 22 mg/dL and a TBIL of 0.16 mg/dL. Moreover, the “% UTC (Yap1 mRNA)” value with Yap1 mRNA (31.3 nM) stood at 36 % UTC. Besides, the “% UTC (Yap1 mRNA)” value in the series on Yap1 mRNA (125.0 nM) was 8 % UTC. The “% UTC (Yap1 mRNA)” value in the series with Yap1 mRNA (500.0 nM) stood at 1 % UTC. Also, the “% UTC (Yap1 mRNA)” value in the series with Yap1 mRNA (2000.00 nM) is given as 0 % UTC. Further, in the series with Yap1 mRNA, the pIC50 was more than 7.52.

Source of the values: US11214803B2, “Modulators of YAP1 expression” (Ionis Pharmaceuticals, Inc., priority 2019, dated 2022).
